ChEMBL document CHEMBL4052808, “Novel anti-prostate cancer scaffold identified by the combination of in silico and cell-based assays targeting the PI3K-AKT-mTOR pathway” (Bioorg Med Chem Lett, 2017)
Activity calls are given as the source filed them. No cut-off for these calls is given here.

Experiments:
[1] = test system: DU-145; assay: Cytotoxicity against human DU145 cells by MTT assay; type: functional, cell-based
[2] = test system: PC-3; assay: Cytotoxicity against human PC3 cells by MTT assay; type: functional, cell-based
[3] = Cytotoxicity against mouse Balb/c 3T3 clone A31 cells assessed as cell viability at 100 uM by MTT assay relative to control; type: cell-based; settings: read-out: Activity
[4] = Selectivity index, ratio of cytotoxic concentration against mouse Balb/c 3T3 clone A31 cells to EC50 for human PC3 cells; type: functional
[5] = organism: Homo sapiens; assay: Inhibition of […] pathway in human PC3 cells assessed as phosphorylation of AKT at ser473 residues at 100 uM after 1 hr by PerCP probe based flow cytometric analysis (reference value: 43.92%); type: cell-based
[6] = organism: Homo sapiens; assay: Inhibition of […] pathway in human PC3 cells assessed as phosphorylation of S6 at ser235 residues at 100 uM after 1 hr by alexa fluor 488 probe based flow cytometric analysis (reference value: 48.58%); type: cell-based

Which EC50 [1] does the source give for `COCC[n+]1c2c(n(Cc3cnccn3)c1C)C(=O)c1ccccc1C2=O` [SEPANTRONIUM BROMIDE] here?
Its EC50 is 0.0138 µM.

And the EC50 [2]?
Its EC50 is 0.092 µM.

Which Activity [1] does the source give for `Nc1ccc(C(=O)N2CCC(Cc3ccc(F)cc3)CC2)cn1` here?
Its Activity is “inactive”.

What about the EC50 [2] of the same molecule?
Its EC50 is 75 µM.

What about the viability at 100 µM [3] of the same molecule?
Its viability at 100 µM is 68.1%.

And the “Selectivity Index” value [4]?
The value was greater than 1.33.

And the inhibition [5]?
Its inhibition is 39.4%.

And the inhibition [6]?
Its inhibition is 14%.

Which Activity [1] does the source give for `Cc1ccccc1SC1CCN(C(=O)c2ccc(N)nc2)CC1` here?
Its Activity is “inactive”.

What about the EC50 [2] of the same molecule?
Its EC50 is 60.7 µM.

And the viability at 100 µM [3]?
Its viability at 100 µM is 95.4%.

And the “Selectivity Index” value [4]?
Its value is greater than 1.65.

And the inhibition [5]?
Its inhibition is 34.8%.

And the inhibition [6]?
The inhibition was 15.5%.

With `CO[C@H]1C[C@@H]2CC[C@@H](C)[C@@](O)(O2)C(=O)C(=O)N2CCCC[C@H]2C(=O)O[C@H]([C@H](C)C[C@@H]2CC[C@@H](O)[C@H](OC)C2)CC(=O)[C@H](C)/C=C(\C)[C@@H](O)[C@@H](OC)C(=O)[C@H](C)C[C@H](C)/C=C/C=C/C=C/1C` [SIROLIMUS] as the molecule, how does the EC50 [2] read?
The EC50 was 43.1 µM.

And the viability at 100 µM [3]?
Its viability at 100 µM is 58.3%.

And the “Selectivity Index” value [4]?
The value was greater than 2.32.

And the inhibition [5]?
The inhibition was 28.9%.

What about the inhibition [6] of the same molecule?
Its inhibition is 7.24%.
